From patent US20260184669A1, “LIPID COMPOUND AND COMPOSITION FOR DELIVERY OF ACTIVE SUBSTANCE” (KOREA RESEARCH INSTIUTE OF BIOSCIENCE AND BIOTECHNOLOGY, priority 2022, published 2026)

How the values were obtained:
[1] = Stability of mRNA-LNPs according to storage temperature and duration; assay type: physicochemical; conditions: for Normalized EE % D-1 / Size (nm) D-1 / PDI D-1: day 1; for Normalized EE % D-7 / PDI D-7 / Size (nm) D-7: day 7; for Normalized EE % D-30 / PDI D-30 / Size (nm) D-30: day 30
Description: Stability of fLuc mRNA-LNPs produced using various ionizable lipids according to the method of Example 27, was assessed by storing the LNPs at 4° C. and 25° C. At 1, 7, and 30 days post-manufacture, the size, PDI, and encapsulation efficiency (EE) of each mRNA-LNPs samples were measured using the methods described in Experimental Examples 2 and 3.

[2] = Size, polydispersity index and surface charge of mRNA-LNP (Malvern Zetasizer Nano ZS90); assay type: physicochemical; conditions: for PDI / size (nm) Number: mRNA-LNP made with the ionizable lipid at its optimal formulation (Table 2); for size (nm) Number: diluted with PBS to 1 μg/mL mRNA; for Zeta (mV): surface charge of mRNA-LNP made with the ionizable lipid at its optimal formulation (Table 2)
Description: Each mRNA-LNPs produced in Example 27 was diluted with PBS to a final mRNA concentration of 1 μg/mL. The size, polydispersity index (PDI), and surface charge of the mRNA-LNPs were then measured using a Malvern Zetasizer Nano ZS90 (Malvern Instruments, UK).
For particles intended for systemic administration, such as via blood vessels, the particle size must be less than 200 nm in order to pass through the endothelial capillaries of the liver. In addition, the size distribution is considered uniform only when the PDI is 0.3 or less, which enables consistent and efficient therapeutic effects (Non-patent document 3 [Danaei, M. et al). Pharmaceutics 2018, 10, 57]).

[3] = system: CCL3 mRNA level in HEK-293T cells; conditions: human
female C57BL/6 mice = assay: Protein expression efficiency of fLuc mRNA-LNPs after intramuscular injection (IVIS whole-body luminescence); assay type: in vivo; conditions: for Total flux 1 hour / Total flux 3 hours / Total flux 6 hours / Total flux 48 hours / Total flux 72 hours / Total flux: fLuc mRNA-LNP, intramuscular injection, luminescence at injection site, mice; for Total flux 1 hour: 1 hour after administration; for Total flux 3 hours: 3 hours after administration; for Total flux 6 hours: 6 hours after administration; for Total flux 48 hours: 48 hours after administration; for Total flux 72 hours: 72 hours after administration; for Total flux: after administration; for Fold increase in total flux at 3 h, MC3: relative to control LNP formulated with MC3; for Fold increase in total flux at 3 h, MC3 / Fold increase in total flux at 3 h, SM-102: 3 hours after intramuscular injection; for Fold increase in total flux at 3 h, SM-102: relative to control LNP formulated with SM-102
Description: fLuc mRNA-LNPs formulated using various ionizable lipids were prepared according to the method described in Example 27 and administered in vivo via intramuscular (I. M.) or intravenous (IV.) injection to compare the resulting protein expression efficiency in vivo. As a control, EGFP mRNA-LNPs formulated with commercially available ionizable lipids MC3 or SM-102 were used. All mRNA-LNPs were administered at equal mRNA doses per body weight across different concentration groups (n≥4).
Specifically, the dose of mRNA-LNPs was adjusted to 0.1-0.5 mg/kg of body weight, and the formulation was administered via I.M. or I.V. injection to female C57BL/6 mice (6-10 weeks old, Orient Bio, Korea) Subsequently, […], whole-body luminescence images were acquired using an in vivo imaging system (IVIS Lumina III, PerkinElmer, Walzam, MA, USA). To assess protein expression levels, 200 μL of D-luciferin (15 mg/mL) was administered via intraperitoneal (I.P.) injection 10 minutes prior to imaging. During image acquisition, the animals were anesthetized by inhalation of 3% isoflurane in 97% medical grade oxygen. In addition, the acquired luminescence images were quantitatively analyzed using imaging software (Living Image Software Version 4.4; PerkinElmer, USA).
After intramuscular injection of the fLuc mRNA-LNPs, the luminescence intensity at the injection site was measured over time.
Furthermore, the luminescence intensity at the injection site 3 hours after intramuscular injection was measured, and the relative protein expression efficiency was compared to that of control LNPs formulated with MC3 or SM-102.

[4] = system: IL-1β mRNA level in HEK-293T cells; conditions: human
[5] = system: CCL2 mRNA level in HEK-293T cells; conditions: human
[6] = mRNA encapsulation efficiency (Quant-IT RiboGreen RNA assay); assay type: physicochemical; conditions: mRNA encapsulation efficiency of mRNA-LNP made with the ionizable lipid; average of two measurements
Description: The mRNA encapsulation efficiency (EE, %) of LNPs containing mRNA was measured using the Quant-IT™ RiboGreen® RNA assay kit (Invitrogen, USA).
The diluted samples were added to each well of a 96-well plate. Group A (without Triton X-100) was supplemented with 50 μL of 1×TE buffer, while Group B (with Triton X-100) was supplemented with 50 μL of 1×TE buffer containing 2% Triton-X 100. To release the encapsulated mRNA, the LNPs were treated with Triton-X 100 and incubated at 37° C. for 10 minutes. Subsequently, 100 μL of ribogreen reagent was added to each well. The fluorescence intensities of Group A and Group B were measured using a multi-plate reader (λex 480 nm, λem 520 nm), and mRNA encapsulation efficiency (%) was calculated using Equation 1 below. The encapsulation efficiency for each LNP was determined as the average of two independent measurements.

[7] = system: IL-6 mRNA level in HEK-293T cells; conditions: human

| Compound | Normalized EE % D-1 ([1]; fLuc mRNA-LNP stored at 4° C.) [%] | Size (nm) D-1 ([1]; fLuc mRNA-LNP stored at 4° C.) [nm] | Normalized EE % D-7 ([1]; fLuc mRNA-LNP stored at 4° C.) [%] | PDI D-7 ([1]; fLuc mRNA-LNP stored at 4° C.) | Size (nm) D-7 ([1]; fLuc mRNA-LNP stored at 4° C.) [nm] | Normalized EE % D-1 ([1]; fLuc mRNA-LNP stored at 25° C.) [%] | PDI D-1 ([1]; fLuc mRNA-LNP stored at 25° C.) | Size (nm) D-1 ([1]; fLuc mRNA-LNP stored at 25° C.) [nm] | PDI [2] | size (nm) Number [2] [nm] | Zeta (mV) [2] [mV] | Total flux 1 hour (female C57BL/6 mice) | Total flux 3 hours (female C57BL/6 mice) | Total flux 6 hours (female C57BL/6 mice) | Total flux 48 hours (female C57BL/6 mice) | Total flux 72 hours (female C57BL/6 mice) | Total flux (female C57BL/6 mice) | Fold increase in total flux at 3 h, MC3 (female C57BL/6 mice) | Fold increase in total flux at 3 h, SM-102 (female C57BL/6 mice) | EE (%) [6] [%] | other results |
| --- | --- | --- | --- | --- | --- | --- | --- | --- | --- | --- | --- | --- | --- | --- | --- | --- | --- | --- | --- | --- | --- |
| CCCCCCCCCCCOC(=O)CCCCCN(CCCCCCCC(=O)OC(CCCCCCCC)CCCCCCCC)CC(O)CCCCNC(=O)c1ccn(C)c1 (stereo not shown) [Compound 19, Heptadecan-9-yl 8-((2-hydroxy-6-(1-methyl-1H-pyrrole-3-carboxamido)hexyl) (6-oxo-6-(undecyloxy)hexyl)amino)octanoate] | 93.1 | 184.7 | 90.6 | 0.122 | 161.2 | 93.1 | 0.193 | 184.7 | 0.193 | 185 | −5.68 | 3.16E+07 | 5.15E+07 | 3.82E+07 | 1.12E+06 | 5.38E+05 | 8.29E+06 | 4.17 | 0.46 | 93 | Normalized EE % D-30 ([1]; fLuc mRNA-LNP stored at 4° C.): 87.2%; PDI D-30 ([1]; fLuc mRNA-LNP stored at 4° C.): 0.071; Size (nm) D-30 ([1]; fLuc mRNA-LNP stored at 4° C.): 177.4 nm; Normalized EE % D-7 ([1]; fLuc mRNA-LNP stored at 25° C.): 88.1%; PDI D-7 ([1]; fLuc mRNA-LNP stored at 25° C.): 0.107; Size (nm) D-7 ([1]; fLuc mRNA-LNP stored at 25° C.): 172.5 nm; Normalized EE % D-30 ([1]; fLuc mRNA-LNP stored at 25° C.): 88.3%; PDI D-30 ([1]; fLuc mRNA-LNP stored at 25° C.): 0.159; Size (nm) D-30 ([1]; fLuc mRNA-LNP stored at 25° C.): 171.7 nm; CCL3 Average [3]: 1.04; IL-1β Average [4]: 1.07; CCL2 Average [5]: 0.91; IL-6 Average [7]: 0.89 |
| CCCCCCCCCCCOC(=O)CCCCCN(CCCCCCCC(=O)OC(CCCCCCCC)CCCCCCCC)CC(O)CCCCNC(=O)c1[nH]ccc1O (stereo not shown) [Compound 21, Heptadecan-9-yl 8-((2-hydroxy-6-(3-hydroxy-1H-pyrrole-2-carboxamido)hexyl)(6-oxo-6-(undecyloxy)hexyl)amino)octanoate] |  |  |  |  |  |  |  |  | 0.155 | 112 | −4.55 | 1.98E+07 | 1.29E+08 | 9.56E+07 | 3.51E+06 | 1.66E+06 | 1.25E+07 | 10.42 | 1.14 | 92 | CCL3 Average [3]: 1.82; protein expression compared to the control group (SM-102) (female C57BL/6 mice; 3 hours post intramuscular injection, in words): significantly higher protein expression; IL-1β Average [4]: 1.18; CCL2 Average [5]: 0.63; IL-6 Average [7]: 1.39 |
| CCCCCCCCCCCOC(=O)CCCCCN(CCCCCCCC(=O)OC(CCCCCCCC)CCCCCCCC)CC(O)CCCCNC(=O)c1c(O)ccn1C (stereo not shown) [Compound 24, Heptadecan-9-yl 8-((2-hydroxy-6-(3-hydroxy-1-methyl-1H-pyrrole-2-carboxamido)hexyl)(6-oxo-6-(undecyloxy)hexyl)amino)octanoate] | 89.7 | 136.9 | 90.5 | 0.114 | 123.7 | 89.7 | 0.114 | 136.9 | 0.114 | 137 | −7.89 | 6.70E+06 | 3.49E+07 | 4.45E+07 | 3.86E+06 | 3.66E+06 | 7.85E+06 | 2.82 | 0.31 | 90 | Normalized EE % D-7 ([1]; fLuc mRNA-LNP stored at 25° C.): 89.6%; PDI D-7 ([1]; fLuc mRNA-LNP stored at 25° C.): 0.163; Size (nm) D-7 ([1]; fLuc mRNA-LNP stored at 25° C.): 113.5 nm; CCL3 Average [3]: 1.36; IL-1β Average [4]: 0.99; CCL2 Average [5]: 0.96; IL-6 Average [7]: 0.87 |
| CCCCCCCCCCCOC(=O)CCCCCN(CCCCCCCC(=O)OC(CCCCCCCC)CCCCCCCC)CC(O)CCCCNC(=O)c1cnc(O)n1C (stereo not shown) [Compound 40, Heptadecan-9-yl 8-((2-hydroxy-6-(2-hydroxy-1-methyl-1H-imidazole-5-carboxamido)hexyl)(6-oxo-6-(undecyloxy)hexyl)amino)octanoate] | 92.3 | 106.8 | 89.0 | 0.106 | 155.6 | 92.3 | 0.154 | 106.8 | 0.154 | 107 | −1.73 | 7.92E+06 | 1.50E+07 | 6.60E+06 | 1.10E+06 | 8.29E+05 | 6.46E+05 | 1.22 | 0.13 | 92 | Normalized EE % D-30 ([1]; fLuc mRNA-LNP stored at 4° C.): 87.5%; PDI D-30 ([1]; fLuc mRNA-LNP stored at 4° C.): 0.044; Size (nm) D-30 ([1]; fLuc mRNA-LNP stored at 4° C.): 146.2 nm; Normalized EE % D-7 ([1]; fLuc mRNA-LNP stored at 25° C.): 90.9%; PDI D-7 ([1]; fLuc mRNA-LNP stored at 25° C.): 0.112; Size (nm) D-7 ([1]; fLuc mRNA-LNP stored at 25° C.): 146.8 nm; Normalized EE % D-30 ([1]; fLuc mRNA-LNP stored at 25° C.): 89.3%; PDI D-30 ([1]; fLuc mRNA-LNP stored at 25° C.): 0.091; Size (nm) D-30 ([1]; fLuc mRNA-LNP stored at 25° C.): 144.8 nm |
